“And” between values parts separate entries of the source, which are not always exact repeats. Identical values can stand only once. Inconclusive results and toxic doses are left out. No stated cut-off is given here; in the data, active means T/C of 150% or more; inactive means T/C below 125%.
System: L1210 leukemia ip in BDF1 mice, survival T/C
Assay: NCI In Vivo Anticancer Drug Screen. Data for tumor model L1210 Leukemia (intraperitoneal) in B6D2F1 (BDF1) mice
Conditions: endpoint: mean survival time, higher = longer survival
How it was run: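 Tumor cells were implanted, animals were treated, and survival was followed. The result divides the treated measurement by the vehicle-control measurement.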

[1] = dose: 100.0 mg/kg/injection, schedule: Q04DX003 (ip), vehicle: saline with Tween-80
[2] = dose: 200.0 mg/kg/injection, schedule: Q04DX003 (ip), vehicle: saline with Tween-80
[3] = dose: 100.0 mg/kg/injection, schedule: Q01DX009 (ip), vehicle: saline
[4] = dose: 100.0 mg/kg/injection, schedule: Q04DX003 (ip), vehicle: saline
[5] = dose: 200.0 mg/kg/injection, schedule: Q01DX009 (ip), vehicle: saline
[6] = dose: 200.0 mg/kg/injection, schedule: Q04DX003 (ip), vehicle: saline
[7] = dose: 400.0 mg/kg/injection, schedule: Q01DX009 (ip), vehicle: saline
[8] = dose: 400.0 mg/kg/injection, schedule: Q04DX003 (ip), vehicle: saline
[9] = dose: 100.0 mg/kg/injection, schedule: Q04DX002 (ip), vehicle: Klucel (hydroxypropylcellulose) (HPC)
[10] = dose: 200.0 mg/kg/injection, schedule: Q04DX002 (ip), vehicle: Klucel (hydroxypropylcellulose) (HPC)
[11] = dose: 400.0 mg/kg/injection, schedule: Q04DX002 (ip), vehicle: Klucel (hydroxypropylcellulose) (HPC)
[12] = dose: 100.0 mg/kg/injection, schedule: Q01DX009 (ip), vehicle: saline with Tween-80
[13] = dose: 100.0 mg/kg/injection, schedule: Q01DX009 (ip), vehicle: Klucel (hydroxypropylcellulose) (HPC)
[14] = dose: 200.0 mg/kg/injection, schedule: Q01DX009 (ip), vehicle: Klucel (hydroxypropylcellulose) (HPC)
[15] = dose: 400.0 mg/kg/injection, schedule: Q01DX009 (ip), vehicle: Klucel (hydroxypropylcellulose) (HPC)

Measured: T/C

OCC1OC(n2cnc3c2NC=NC[C@H]3O)CC1O (stereo not given in full)
inactive: dose: 0.13 mg/kg/injection, schedule: Q01DX005 (ip), vehicle: water 100 % of control | dose: 0.13 mg/kg/injection, schedule: Q01DX009 (ip), vehicle: water 104 % of control | dose: 0.25 mg/kg/injection, schedule: Q01DX005 (ip), vehicle: water 105 % of control | dose: 0.25 mg/kg/injection, schedule: Q01DX009 (ip), vehicle: water 101 % of control | dose: 0.25 mg/kg/injection, schedule: Q04DX002 (ip), vehicle: water 98 % of control | dose: 0.25 mg/kg/injection, schedule: Q04DX003 (ip), vehicle: water 98 % of control | dose: 0.5 mg/kg/injection, schedule: Q04DX002 (ip), vehicle: water 95 % of control | dose: 0.5 mg/kg/injection, schedule: Q04DX003 (ip), vehicle: water 106 % of control

NC1=C(Cl)C(=O)C(N)=C(Cl)C1=O
inactive: [1] 98 % of control | [2] 98 % of control | dose: 400.0 mg/kg/injection, schedule: Q04DX003 (ip), vehicle: saline with Tween-80 88 % of control

Nc1cccc2c1[nH]c(=O)c1ccccc12
inactive: dose: 100.0 mg/kg/injection, schedule: Q01DX001 (ip), vehicle: carboxymethylcellulose (CMC) 95 % of control | dose: 200.0 mg/kg/injection, schedule: Q01DX001 (ip), vehicle: carboxymethylcellulose (CMC) 97 % of control | dose: 400.0 mg/kg/injection, schedule: Q01DX001 (ip), vehicle: carboxymethylcellulose (CMC) 97 % of control

COc1cc2c(cc1OC)C1c3cc(OC)c(OC)cc3CC(=O)N1CC2 (stereo not given)
inactive: dose: 50.0 mg/kg/injection, schedule: Q01DX009 (ip), vehicle: saline 87 % of control | [3] 104 % of control | [4] 100 % of control | [5] 102 % of control | [6] 96 % of control | [7] 98 % of control | [8] 95 % of control

O=C(O)C1CC(c2ccccc2)C(=O)O1 (stereo not given)
inactive: [9] 100 % of control | [10] 100 % of control | [11] 96 % of control

OC1COC(Cl)C(O)C1O (stereo not given)
inactive: dose: 25.0 mg/kg/injection, schedule: Q01DX009 (ip), vehicle: saline with Tween-80 96 % of control | dose: 50.0 mg/kg/injection, schedule: Q01DX009 (ip), vehicle: saline with Tween-80 97 % of control | [12] 94 % of control | [1] 91 % of control | [2] 88 % of control

COc1cc(OC)c(NC(=O)Nc2ccc([N+](=O)[O-])cc2OC)cc1Cl
inactive: [13] 101 % of control | [14] 95 % of control | [15] 97 % of control

CCOC(=O)N1c2ccc(Cl)cc2C=CC1C#N (stereo not given)
inactive: dose: 100.0 mg/kg/injection, schedule: Q01DX009 (ip), vehicle: gum acacia 91 % of control | dose: 100.0 mg/kg/injection, schedule: Q04DX003 (ip), vehicle: gum acacia 103 % of control | dose: 200.0 mg/kg/injection, schedule: Q01DX009 (ip), vehicle: gum acacia 91 % of control | dose: 200.0 mg/kg/injection, schedule: Q04DX003 (ip), vehicle: gum acacia 97 % of control | dose: 400.0 mg/kg/injection, schedule: Q04DX003 (ip), vehicle: gum acacia 92 % of control

Cn1c(=O)c2c(ncn2CCCCO)n(C)c1=O
inactive: [3] 94 % of control | [5] 95 % of control | [7] 92 % of control

Brc1ccc2c(c1)/C(=C/c1ccccc1)c1ccccc1-2
inactive: dose: 25.0 mg/kg/injection, schedule: Q04DX002 (ip), vehicle: DMSO 92 % of control | dose: 50.0 mg/kg/injection, schedule: Q04DX002 (ip), vehicle: DMSO 95 % of control

O=C(Nc1ccccc1C(F)(F)F)c1ccc(F)cc1
inactive: dose: 100.0 mg/kg/injection, schedule: Q01DX001 (ip), vehicle: Klucel (hydroxypropylcellulose) (HPC) 99 % of control | [13] 95 % of control and 103 % of control | [9] 98 % of control and 121 % of control | dose: 100.0 mg/kg/injection, schedule: Q04DX003 (ip), vehicle: Klucel (hydroxypropylcellulose) (HPC) 105 % of control | dose: 200.0 mg/kg/injection, schedule: Q01DX001 (ip), vehicle: Klucel (hydroxypropylcellulose) (HPC) 95 % of control | [14] 94 % of control and 95 % of control | [10] 100 % of control and 101 % of control | dose: 200.0 mg/kg/injection, schedule: Q04DX003 (ip), vehicle: Klucel (hydroxypropylcellulose) (HPC) 100 % of control | dose: 400.0 mg/kg/injection, schedule: Q01DX001 (ip), vehicle: Klucel (hydroxypropylcellulose) (HPC) 104 % of control | [15] 95 % of control and 97 % of control | [11] 96 % of control and 100 % of control | dose: 400.0 mg/kg/injection, schedule: Q04DX003 (ip), vehicle: Klucel (hydroxypropylcellulose) (HPC) 113 % of control

Nc1csc(N)n1
inactive: dose: 75.0 mg/kg/injection, schedule: Q04DX003 (ip), vehicle: saline 107 % of control | [4] 97 % of control | dose: 150.0 mg/kg/injection, schedule: Q04DX003 (ip), vehicle: saline 105 % of control | [6] 96 % of control | dose: 300.0 mg/kg/injection, schedule: Q04DX003 (ip), vehicle: saline 94 % of control | [8] 103 % of control

CNN1CCOC1=O
inactive: dose: 100.0 mg/kg/injection, schedule: Q04DX002 (ip), vehicle: saline 100 % of control | dose: 200.0 mg/kg/injection, schedule: Q04DX002 (ip), vehicle: saline 100 % of control | dose: 400.0 mg/kg/injection, schedule: Q04DX002 (ip), vehicle: saline 104 % of control

O=NN1CCCCC1C(=O)O (stereo not given)
inactive: dose: 100.0 mg/kg/injection, schedule: Q01DX001 (ip), vehicle: saline 98 % of control | dose: 200.0 mg/kg/injection, schedule: Q01DX001 (ip), vehicle: saline 102 % of control

O=C(c1ccccc1)c1cc(Cl)ccc1NC(=O)C(Cl)(Cl)Cl
inactive: dose: 50.0 mg/kg/injection, schedule: Q01DX001 (ip), vehicle: saline with Tween-80 97 % of control | dose: 100.0 mg/kg/injection, schedule: Q01DX001 (ip), vehicle: saline with Tween-80 102 % of control | [12] 95 % of control and 89 % of control | dose: 100.0 mg/kg/injection, schedule: Q04DX002 (ip), vehicle: saline with Tween-80 96 % of control and 104 % of control | dose: 200.0 mg/kg/injection, schedule: Q01DX001 (ip), vehicle: saline with Tween-80 92 % of control | dose: 200.0 mg/kg/injection, schedule: Q01DX009 (ip), vehicle: saline with Tween-80 95 % of control and 89 % of control | dose: 200.0 mg/kg/injection, schedule: Q04DX002 (ip), vehicle: saline with Tween-80 93 % of control and 96 % of control | dose: 400.0 mg/kg/injection, schedule: Q01DX001 (ip), vehicle: saline with Tween-80 91 % of control | dose: 400.0 mg/kg/injection, schedule: Q01DX009 (ip), vehicle: saline with Tween-80 89 % of control and 91 % of control | dose: 400.0 mg/kg/injection, schedule: Q04DX002 (ip), vehicle: saline with Tween-80 101 % of control and 89 % of control

From PubChem BioAssay AID248 (DTP/NCI, 2004)
